# Experimental data taken from patent US5206029A, “Medicament and its production and use in the treatment of pain, inflammation and fever in man and animals” (PAZ Arzneimittel-Entwicklungsgesellschaft mbH, priority 1990, dated 1993).
# Key:
# [1] = test system: macrophages (peritoneum of the mouse); assay: inhibition of prostaglandin liberation on macrophages (peritoneum of the mouse); type: cell-based
# Protocol: Furthermore, contrary to the published state of knowledge (v. supra), S(+)-flurbiprofen in the case of administration after episiotomy is preferably effective antiphlogistically and not preferably analgesically. This further surprising test result was tested on two inflammation models selected independently of one another.
# gastro-intestinal mucosa = assay: gastrointestinal toxicity in the rat (gastric ulcer index, intestinal ulcer); type: in vivo
# Protocol: Each of the test groups were sacrificed after 24 hours, the stomach and intestines were removed and the stomach opened and cleaned with salt solution. The number of ulcerations multiplied with the diameter thereof in mm. is given as the "gastric ulcer index". The unopened small intestine was investigated for white and brown color changes. The corresponding sections were cut out and the weight thereof in comparison with the total weight plotted in % as "intestinal ulcer". The results are significant in the t-test in comparison with the control.
# [2] = parameters: species or system mouse and rat; conditions: in vivo
# Excerpt: (§1) This unexpected result was verified by investigations in two animal models (mouse and rat).
# post-episiotomy pain = conditions: half dosage; A. Sunshine et al., Clin. Pharmacol Ther. 1987; cited from earlier work
# [3] = test system: carrageenin-induced paw oedema; assay: carrageenin-induced paw oedema of the rat; type: in vivo, rat (male Sprague-Dawley); conditions: for oedema inhibition: 0.3 mg./kg. per os, paw volume after 3 hours p.a., FIG. 4
# Protocol: To male Sprague-Dawley rats, each with a body weight of 120 to 150 g., were administered per os with a stomach probe the test substances (0.3 mg./kg. body weight). Immediately thereafter, into the left rear paw was injected subplantary 0.1 ml. of a.1% carrageenin solution in order to induce oedema. After 3 hours p.a., the paw volumes were determined by means of a plethysmometer (modified method according to Hofrichter).
# [4] = test system: interleukin 1-induced pain; assay: interleukin 1-induced pain test in rats; type: in vivo, rat; conditions: FIG. 2
# Excerpt: as §1
# (§2) FIGS. 1-4 are graphs of tests in rats for cramp pain, interleukin-1-inducedpain, prostaglandin production and carrageenin-induced paw oedema for the R(-) and S(+) enantiomers of flurbiprofen, […]
# cramp pain = cramp pain test in mice; type: in vivo, mouse; conditions: FIG. 1
# Excerpt: as §1, §2
Compound,"inhibition of the liberation of prostaglandin, compared with the R(-)-form [1]","damage of the gastro-intestinal mucosa (gastro-intestinal mucosa; rat, in vivo)",inversion after administration [2],analgesic effectiveness compared with the racemate (post-episiotomy pain),oedema inhibition [3],"inflammation-inhibiting action in carrageenin paw oedema, compared with the R(-)-form ([3]; rat, FIGS. 3 and 4)","analgesic effectiveness in the interleukin 1-induced pain test, R- versus S-enantiomer [4]","analgesic effectiveness in the cramp pain test, R- versus S-enantiomer (cramp pain)","toxicity on the gastrointestinal tract, compared with the racemate or the S(+)-enantiomer (gastro-intestinal mucosa; summary statement)"
C[C@H](C(=O)O)c1ccc(-c2ccccc2)c(F)c1 [S(+)-flurbiprofen],inhibits the liberation of prostaglandin more markedly than the R(-)-form,only S(+)-flurbiprofen caused damage,no or only a very small inversion,already more effective at half dosage,64%,superior in its inflammation-inhibiting action to the R(-)-form,,,
C[C@@H](C(=O)O)c1ccc(-c2ccccc2)c(F)c1 [R(-)-flurbiprofen],,,no or only a very small inversion,,18%,,equal or even more effective by about one third to a half,equal or even more effective by about one third to a half,lower grade toxicity on the gastrointestinal tract than the racemate or the S(+)-enantiomer
